Columns and labels:
olfactory receptor OR5K1 = target: T1, olfactory receptor OR5K1 (Homo sapiens, UniProt Q8NHB7); experiment: Antagonistic activity against OR5K1: inhibition of the receptor response to 2,6-dimethylpyrazine (luciferase assay, HEK293 cells); type: cell-based; conditions: 2,6-dimethylpyrazine 1 mM + test substance 300 μM, cytotoxic flavoring agents re-evaluated at 333 μM 2,6-dimethylpyrazine + 100 μM test substance, read-out: Inhibition rate (receptor response-inhibiting rate)
T1 construct: expressed in transfected cells; host or cells: HEK293
T1 sequence (Q8NHB7 1-308): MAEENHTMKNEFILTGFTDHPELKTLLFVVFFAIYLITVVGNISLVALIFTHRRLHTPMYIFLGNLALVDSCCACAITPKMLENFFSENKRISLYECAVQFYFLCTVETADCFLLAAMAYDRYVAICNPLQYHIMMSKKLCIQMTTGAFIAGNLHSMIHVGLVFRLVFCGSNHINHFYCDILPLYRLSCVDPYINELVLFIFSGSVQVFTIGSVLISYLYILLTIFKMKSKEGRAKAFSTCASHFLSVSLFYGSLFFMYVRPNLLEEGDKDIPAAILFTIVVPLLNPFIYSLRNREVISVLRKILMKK
Description: The receptor response-inhibiting rate of a test substance was calculated as follows. The receptor activity (X-Y) by stimulation with 2,6-dimethylpyrazine alone was determined by subtracting the luminescence value (Y) in cells to which the receptor was introduced but were not stimulated with 2,6-dimethylpyrazine from the luminescence value (X) derived from firefly luciferase induced by stimulation with 2,6-dimethylpyrazine alone. Similarly, the receptor activity (Z-Y) in the presence of a test substance was determined by subtracting the luminescence value (Y) in cells not stimulated with 2,6-dimethylpyrazine from the luminescence value (Z) stimulated with a mixture of 2,6-dimethylpyrazine and the test substance. The reduction rate of the receptor activity (Z-Y) in the presence of a test substance to the receptor activity (X-Y) by stimulation with 2,6-dimethylpyrazine alone was calculated by the following computation expression: Inhibition rate (%)={1−(Z−Y)/(X−Y)}×100, to determine the receptor response-inhibiting rate of the test substance. In the measurement, multiple independent experiments were performed in duplicate, and the average of each experiment was used.

[1] = Sensory test of ability to reduce the odor of 2,6-dimethylpyrazine on cloth; type: in vivo; conditions: 0.5 μL flavoring agent on 0.5 g cloth containing 1% 2,6-dimethylpyrazine; four panelists; FIG. 3
Description: The abilities to reduce an odor of a pyrazine derivative by the antagonist substances identified in Example 3 were confirmed by a sensory test.
A flavoring agent (0.5 μL) was added to cloth (0.5 g) containing 2,6-dimethylpyrazine (1%), and the odor thereof was evaluated by comparing the strength of odor of 2,6-dimethylpyrazine of the cloth not applied with flavor by the flavoring agent. The sensory evaluation test was performed by four panelists. In the evaluation, a case where a strong odor of 2,6-dimethylpyrazine was smelled was rated as 1, and a case where the odor of 2,6-dimethylpyrazine was not smelled at all was rated as 5.

| Compound | inhibition at 300 µM (olfactory receptor OR5K1) | odor of 2,6-dimethylpyrazine inhibited (sensory evaluation, rating 1 strong odor to 5 not smelled) [1] |
| --- | --- | --- |
| O=C1CCCCCCCCCCCC(=O)OCCO1 [1,4-dioxacycloheptadecane-5,17-dione] | ≥ 40% | – |
| CC(=O)C1=C(C)C2CC3(C1)C(C)CCC3C2(C)C (stereo not shown) [1-(2,3,4,7,8,8a-hexahydro-3,6,8,8-tetramethyl-1H-3a,7-methanoazulen-5-yl)-ethanone] | ≥ 50% | – |
| CC=CC(=O)C1=C(C)C=CCC1(C)C [1-(2,6,6-trimethyl-1,3-cyclohexadien-1-yl)-2-buten-1-one] | ≥ 40% | inhibited |
| CCC(O)COC1CCCCC1C(C)(C)C (stereo not shown) [1-(2-tert-butylcyclohexyloxy)-2-butanol] | ≥ 75% | inhibited |
| C=CCCC(=O)C1=CCCC(C)(C)C1 [1-(5,5-dimethyl-1-cyclohexen-1-yl)-4-penten-1-one] | ≥ 40% | inhibited |
| CC(=O)c1cc2c(cc1C)C(C)(C)C(C)CC2(C)C (stereo not shown) [1-(5,6,7,8-tetrahydro-3,5,5,6,8,8-hexamethyl-2-naphthalenyl)-ethanone] | ≥ 75% | – |
| C=CCc1ccc(O)c(OC)c1 [1-allyl-3-methoxy-4-hydroxybenzene] | ≥ 40% | – |
| CC1=CC(C)C(C=O)CC1 (stereo not shown) [2,4-dimethyl-3-cyclohexene-1-carboxyaldehyde] | – | inhibited |
| CC(C=O)C1CCCCC1 (stereo not shown) [2-cyclohexylpropanal] | ≥ 50% | – |
| CCC(=CCC1CC=C(C)C1(C)C)CO (stereo not shown) [2-ethyl-4-(2,2,3-trimethyl-3-cyclopenten-1-yl)-2-buten-1-ol] | ≥ 75% | – |
| CC=Cc1ccc(OCc2ccccc2)c(OC)c1 [2-methoxy-1-(phenylmethoxy)-4-(1-propenyl)-benzene] | ≥ 50% | – |
| CC(=CCC1CC=C(C)C1(C)C)CO (stereo not shown) [2-methyl-4-(2,2,3-trimethyl-3-cyclopenten-1-yl)-2-buten-1-ol] | ≥ 50% | inhibited |
| CCCCCC1=C(C)CCC1=O [2-pentyl-3-methyl-2-cyclopenten-1-one] | ≥ 40% | – |
| CC(C=O)c1ccccc1 (stereo not shown) [2-phenylpropionaldehyde] | ≥ 50% | – |
| CC(C)CCCC(C)CCO (stereo not shown) [3,7-dimethyl-1-octanol] | ≥ 50% | – |
| CC(C)=CCCC(C)=CC=O [3,7-dimethyl-2,6-octadienal] | ≥ 75% | – |
| CC(C)=CCCC(C)CC=O (stereo not shown) [3,7-dimethyl-6-octenal] | ≥ 50% | – |
| C=C(OCC)C1C(C)(C)CC(=O)CC1(C)C [4-(1-ethoxyvinyl)-3,3,5,5-tetramethylcyclohexanone] | ≥ 50% | – |
| CC(=O)C=CC1=C(C)CCCC1(C)C [4-(2,6,6-trimethyl-1-cyclohexen-1-yl)-3-buten-2-one] | – | inhibited |
| CCC=C(C)C(O)CCCCC (stereo not shown) [4-methyl-3-decen-5-ol] | ≥ 75% | inhibited |
| CC(=O)c1c(C)c([N+](=O)[O-])c(C(C)(C)C)c([N+](=O)[O-])c1C [4-tert-butyl-2,6-dimethyl-3,5-dinitroacetophenone] | ≥ 40% | – |

| Compound | inhibition at 300 µM (olfactory receptor OR5K1) | odor of 2,6-dimethylpyrazine inhibited (sensory evaluation, rating 1 strong odor to 5 not smelled) [1] |
| --- | --- | --- |
| Cc1ccc(C(C)C)c(O)c1 [5-methyl-2-(1-methylethyl)-phenol] | ≥ 75% | – |
| CC(C)=CCCC(C)CCOCC=O (stereo not shown) [6,10-dimethyl-3-oxa-9-undecenal] | ≥ 40% | – |
| CC(=O)c1cc(C(C)(C)C)cc2c1C=CC2(C)C [6-tert-butyl-1,1-dimethylinden-4-yl methyl ketone] | ≥ 40% | – |
| CC(=O)C1(C)CC2=C(CCCC2(C)C)CC1C (stereo not shown) [7-acetyl-1,2,3,4,5,6,7,8-octahydro-1,1,6,7-tetramethyl-naphthalene] | ≥ 75% | – |
| CC1C/C=C/CCCCCCCCCC(=O)C1 (stereo not shown) [(5E)-3-methylcyclopenta-5-decen-1-one] | – | inhibited |
| CC(C)=CCC/C(C)=C/CO [(E)-3,7-dimethyl-2,6-octadien-1-ol] | ≥ 40% | inhibited |
| CC(=O)O[C@]1(C)CC[C@@]23C[C@@H]1C(C)(C)[C@@H]2CC[C@H]3C [cedryl acetate] | ≥ 50% | – |
| O=CC=Cc1ccccc1 [cinnamaldehyde] | ≥ 50% | – |
| CC(C)[C@H]1CC[C@@H](CO)CC1 [cis-4-isopropylcyclohexylmethanol] | ≥ 40% | – |
| CC1(C)CCCC2(C)C1CCC1(C)OCCC12 (stereo not shown) [dodecahydro-3a,6,6,9a-tetramethylnaphtho[2,1-b]furan] | ≥ 50% | – |
| CCOC(=O)[C@]12CCC[C@H]1[C@@H]1CC[C@H]2C1 [ethyl-(3aα,4α,7α,3aα)-octahydro-4,7-methano-3aH-indene-3a-carboxylate] | – | inhibited |
| CCOCOC1CCCCCCCCCCC1 [formaldehyde cyclododecyl ethyl acetal] | ≥ 50% | – |
| CCCCCCOC(=O)c1ccccc1O [hexyl salicylate] | ≥ 40% | – |
| O=C(OCCc1ccccc1)c1ccccc1O [phenylethyl salicylate] | ≥ 75% | – |
| CCCCCCC(C=O)=Cc1ccccc1 [α-hexylcinnamic aldehyde] | – | inhibited |
| CC(=O)/C(C)=C/C1C(C)=CCCC1(C)C (stereo not drawn) [α-isomethyl ionone] | – | inhibited |
| CC(C=O)Cc1ccc2c(c1)OCO2 (stereo not drawn) [α-methyl-3,4-methylenedioxyhydrocinnamic aldehyde] | – | inhibited |
| CC(C=O)Cc1ccc(C(C)C)cc1 (stereo not drawn) [α-methyl-4-(1-methylethyl)-benzenepropanal] | ≥ 75% | – |
| CC(C=O)Cc1ccc(C(C)(C)C)cc1 (stereo not drawn) [α-methyl-β-(p-tert-butylphenyl)-propionaldehyde] | ≥ 50% | inhibited |
| CC(=O)c1ccc2ccccc2c1 [β-methyl naphthyl ketone] | – | inhibited |
| CCCCCCCC1CCC(=O)O1 (stereo not shown) [γ-undecalactone] | – | inhibited |

Source: patent US10159655B2, “Agent for inhibiting odor of pyrazine derivatives” (Kao Corporation, priority 2012, dated 2018)
